According to patent publication US20030050283A1, “Composition for the treatment and/or prevention of macular degeneration, method for its manufacture, and its use for treating the eye” (priority 2001, published 2003):
Like-named read-outs stand apart in the source and are kept apart here.

Tests used:
[1] = target: T1, solubilized cytochrome c oxidase (COX) (Rattus norvegicus, UniProt P00406+P05503+P05505); test: Activity of solubilized cytochrome c oxidase by oxygen consumption (Clarke electrode); assay type: biochemical; conditions: for IC50: read-out: IC50 (μM) in relation to COX
T1 construct: Cytochrome c oxidase was purified from rat liver mitochondria of female Wistar rats; from tissue; host or cells: rat liver mitochondria (female Wistar rats)
T1 sequence (P00406 whole entry, other chains not shown): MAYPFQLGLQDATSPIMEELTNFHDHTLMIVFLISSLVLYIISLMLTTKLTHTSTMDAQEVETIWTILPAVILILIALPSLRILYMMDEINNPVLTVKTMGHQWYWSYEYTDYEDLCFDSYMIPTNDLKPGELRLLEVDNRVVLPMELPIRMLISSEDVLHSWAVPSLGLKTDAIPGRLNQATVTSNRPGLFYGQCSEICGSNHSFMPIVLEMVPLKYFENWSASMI
T1 sequence (P05505 whole entry, other chains not shown): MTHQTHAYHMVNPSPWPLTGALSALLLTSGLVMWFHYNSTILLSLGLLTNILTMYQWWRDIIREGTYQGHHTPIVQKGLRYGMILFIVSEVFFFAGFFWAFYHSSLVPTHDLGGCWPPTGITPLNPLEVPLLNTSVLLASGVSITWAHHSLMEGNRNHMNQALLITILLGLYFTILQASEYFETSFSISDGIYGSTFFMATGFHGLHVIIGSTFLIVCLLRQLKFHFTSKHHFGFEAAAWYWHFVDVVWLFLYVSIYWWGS
Experimental: Cytochrome c oxidase was purified from rat liver mitochondria of female Wistar rats as described by Frei et al. (Frei, B., Winterhalter, K. H., and Richter, C. (1985) J. Biol. Chem. 260, 7394-7401). The homogenization medium contained 210 mM mannitol, 70 mM saccharose, 10 mM tris-HCl (pH 7.4), 0.1 mM EDTA, and 0.5 mg/mL BSA. The heart mitochondria were purified using a similar method, a polytron homogenizer being used. The cytochrome c oxidase was purified according to the method described by Adez and Cascarano (Adez, I. Z., and Cascarano, J. (1977) J. Bioenerg. Biomemb. 9, 237-253). Cytochrome c oxidase solubilized using Triton X-100 was reconstituted in variously composed phospholipid vesicles of differing dimensions, a modified cholate dialysis method being used. (Niggli, V., Siegel, E., and Carafoli, E. (1982) J. Biol. Chem. 257, 2350-2356). 1 mL of a phospholipid suspension (10 mg/mL in 50 mM KCl, 10 mM HEPES-KOH (pH 7.0), 0.1 mM K^+-EDTA; buffer A) was solubilized in 0.2 mL of a 400 mM cholate solution. The purified cytochrome c oxidase (40 μg) was added to 0.4 mL of the cholate-phospholipid mixture. After an hour on ice, the sample was put into dialysis tubes and dialyzed in the cold against 1 L of buffer A (24 hours), three buffer replacements being performed. Cytochrome c oxidase from Paracoccus denitrificans was graciously provided by Dr. Bernd Ludwig, Biology Center of the University of Frankfurt am Main, Germany.
The cytochrome c oxidase activity was determined by establishing the oxygen consumption. For this purpose, a Clarke electrode was used at 25° C. (Yellow Spring Instruments, Yellow Spring, Ohio), the measurement being performed under continuous stirring. Solubilized cytochrome c oxidase was suspended in 40 mM K^+-phosphate, 0.005 mM EDTA (pH 7.0), 0.7% Tween 20 containing 0.02 mM cytochrome c as a substrate and a mixture of ascorbate und tetramethyl-p-phenylenediamine (TMPD) (10 mM/1 mM). Reconstituted cytochrome c oxidase was measured with ascorbate/TPMD (10 mM/0.2 mM) in a medium containing 100 mM KCl, 0.01 M HEPES-KOH (pH 7.0) und 0.1 mM EDTA.
The radiation with light was performed using a 70 watt lamp which was attached at 10 cm height over the electrode. The oxidation of lipids using peroxynitrite was achieved by suspending 20 mg DPG in 1 mL of 40 mM K^+-phosphate and 0.05 mM EDTA (pH 7.0) and mixing with 0.94 μmol peroxynitrite (original solution 94 mM in 0.1 N NaOH). Malondialdehyde was measured as an index for the lipid oxidation as already described (Klein, S. D., Walt, H., and Richter, C. (1997) Arch. Biochem. Biophys., 348, 313-319).
The activity of the COX could be easily measured by registering the oxygen consumption of the enzyme in the presence of ascorbate and TPMD (tetramethyl-p-phenylene diamine) as an electron source to reduce cytochrome c.
The experiment was performed in darkness (line a) and/or under the incidence of light (line b). 5 μg of catalase from beef liver with 500 μM of H2O2 was added at the positions marked with arrows. […] Two separate measurements are illustrated (lines a and b). At the positions marked by dashed arrows, 300 μg/mL of cardiolipin was added at t=210 seconds and t=950 seconds. At the position of the solid arrow, 5 μg of catalase from beef liver with 500 μM of H2O2 was added.
The oxygen consumption of solubilized COX (2 μg/mL) was measured in the presence of various substances using a Clarke electrode (see materials and methods). […] TPP^+=tetraphenyl phosphonium ion; MPP^+=methylphenyl pyridinium ion.
The oxygen consumption of solubilized COX (2 μg/mL) was measured in the presence of various substances using a Clarke electrode (see materials and methods).

[2] = target: T2, reconstituted cytochrome c oxidase (COX) (Rattus norvegicus, UniProt P00406+P05503+P05505); test: Activity of cytochrome c oxidase reconstituted in phospholipid vesicles, oxygen consumption in presence of A2E; assay type: biochemical; conditions: phospholipid used in the vesicles
T2 construct: Cytochrome c oxidase was purified from rat liver mitochondria of female Wistar rats; from tissue; host or cells: rat liver mitochondria (female Wistar rats)
T2 sequence (P00406 whole entry, other chains not shown): as the sequence (P00406 whole entry, other chains not shown) above
T2 sequence (P05505 whole entry, other chains not shown): as the sequence (P05505 whole entry, other chains not shown) above
Experimental: Cytochrome c oxidase was purified from rat liver mitochondria of female Wistar rats as described by Frei et al. (Frei, B., Winterhalter, K. H., and Richter, C. (1985) J. Biol. Chem. 260, 7394-7401). The homogenization medium contained 210 mM mannitol, 70 mM saccharose, 10 mM tris-HCl (pH 7.4), 0.1 mM EDTA, and 0.5 mg/mL BSA. […] The cytochrome c oxidase was purified according to the method described by Adez and Cascarano (Adez, I. Z., and Cascarano, J. (1977) J. Bioenerg. Biomemb. 9, 237-253). Cytochrome c oxidase solubilized using Triton X-100 was reconstituted in variously composed phospholipid vesicles of differing dimensions, a modified cholate dialysis method being used. […] 1 mL of a phospholipid suspension (10 mg/mL in 50 mM KCl, 10 mM HEPES-KOH (pH 7.0), 0.1 mM K^+-EDTA; buffer A) was solubilized in 0.2 mL of a 400 mM cholate solution. The purified cytochrome c oxidase (40 μg) was added to 0.4 mL of the cholate-phospholipid mixture. After an hour on ice, the sample was put into dialysis tubes and dialyzed in the cold against 1 L of buffer A (24 hours), three buffer replacements being performed.
The cytochrome c oxidase activity was determined by establishing the oxygen consumption. […] Reconstituted cytochrome c oxidase was measured with ascorbate/TPMD (10 mM/0.2 mM) in a medium containing 100 mM KCl, 0.01 M HEPES-KOH (pH 7.0) und 0.1 mM EDTA. […]

COX = target: T3, COX (Rattus norvegicus, UniProt P00406+P05503+P05505); test: Binding of [3H]-A2E to COX by co-precipitation; conditions: 20 min
T3 construct: Cytochrome c oxidase was purified from rat liver mitochondria of female Wistar rats; from tissue; host or cells: rat liver mitochondria (female Wistar rats)
T3 sequence (P00406 whole entry, other chains not shown): as the sequence (P00406 whole entry, other chains not shown) above
T3 sequence (P05505 whole entry, other chains not shown): as the sequence (P05505 whole entry, other chains not shown) above
Experimental: (§1) The quantity of protein used in each case was approximately 50 pmol. After 20 minutes of incubation in the darkness or under radiation using light, 10% (final concentration) of trichloroacetic acid was added, the precipitate was collected on Millipore filters, and the dissolved filter was examined for radioactivity.
To investigate the hypothesis of whether a molecular interaction occurs between COX and A2E, an acid precipitation of COX was performed after the addition of A2E and radiation with light, and/or after A2E exposure in darkness (see Table IV).
(§2) [^3H]-A2E was added to solubilized COX or other proteins. After 20 minutes of incubation in darkness (setup was wrapped in aluminum foil) or under exposure to light, 10% trichloroacetic acid (final concentration) was added, the precipitate was collected on Millipore filters, and the filters, which were dissolved in solvent, were subsequently examined for radioactivity. CL=cardiolipin (diphosphatidylglycerol, DPC); Cyt. c=cytochrome c; BSA=bovine serum albumin.

BSA = BSA (Bos taurus, UniProt P02769); test: Binding of [3H]-A2E to BSA by co-precipitation; set-up: species or system bovine; conditions: 20 min
BSA, sequence (P02769 25-607): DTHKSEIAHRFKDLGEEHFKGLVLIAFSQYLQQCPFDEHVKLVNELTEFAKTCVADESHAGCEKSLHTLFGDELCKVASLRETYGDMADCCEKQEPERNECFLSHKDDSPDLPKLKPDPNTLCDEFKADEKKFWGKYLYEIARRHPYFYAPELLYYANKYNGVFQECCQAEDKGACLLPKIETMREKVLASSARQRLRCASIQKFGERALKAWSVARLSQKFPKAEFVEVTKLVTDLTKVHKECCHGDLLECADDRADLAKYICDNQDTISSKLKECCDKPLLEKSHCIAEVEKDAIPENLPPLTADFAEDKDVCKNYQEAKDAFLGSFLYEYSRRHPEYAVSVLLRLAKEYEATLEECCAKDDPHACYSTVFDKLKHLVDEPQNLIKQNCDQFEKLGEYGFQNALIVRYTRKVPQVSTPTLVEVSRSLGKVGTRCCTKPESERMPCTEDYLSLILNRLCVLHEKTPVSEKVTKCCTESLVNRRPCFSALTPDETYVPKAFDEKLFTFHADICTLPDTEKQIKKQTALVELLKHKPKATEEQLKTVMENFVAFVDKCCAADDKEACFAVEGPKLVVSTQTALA
Experimental: as §1, §2

MCF-7 cells = test: A2E-induced apoptosis of MCF-7 cells in culture; assay type: cell-based
Text: These advantageous properties predestine the phospholipids according to the present invention for use as a medication for treating pathological conditions of the retina, particular for treating AMD and macular degeneration.

[3] = target: T1, solubilized cytochrome c oxidase (COX); test: Activity of solubilized cytochrome c oxidase by oxygen consumption (Clarke electrode); assay type: biochemical; conditions: read-out: IC50 (A2E concentration for 50% inhibition of COX)
Myoglobin = target: T4, Myoglobin (Homo sapiens, UniProt P02144); test: Binding of [3H]-A2E to myoglobin by co-precipitation; conditions: 20 min
T4 sequence (P02144 1-154): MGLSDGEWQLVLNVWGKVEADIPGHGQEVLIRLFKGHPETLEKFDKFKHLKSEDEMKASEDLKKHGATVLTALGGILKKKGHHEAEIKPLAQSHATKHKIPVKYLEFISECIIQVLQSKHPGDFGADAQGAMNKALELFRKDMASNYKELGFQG
Experimental: as §1, §2

[4] = target: T5, COX from Paracoccus denitrificans (Paracoccus denitrificans, UniProt P08306+P98002); test: Reconstituted COX from Paracoccus denitrificans, sensitivity to A2E; assay type: biochemical
T5 construct: host or cells: gift from Dr. Bernd Ludwig, University of Frankfurt am Main
T5 sequence (P08306 30-281): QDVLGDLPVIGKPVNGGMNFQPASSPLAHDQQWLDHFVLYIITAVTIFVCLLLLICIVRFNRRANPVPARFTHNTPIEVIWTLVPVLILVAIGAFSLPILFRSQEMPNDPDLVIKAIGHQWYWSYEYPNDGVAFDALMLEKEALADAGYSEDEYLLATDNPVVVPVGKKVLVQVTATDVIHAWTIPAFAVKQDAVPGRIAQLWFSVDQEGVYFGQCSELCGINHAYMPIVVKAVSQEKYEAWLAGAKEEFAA
T5 sequence (P98002 whole entry): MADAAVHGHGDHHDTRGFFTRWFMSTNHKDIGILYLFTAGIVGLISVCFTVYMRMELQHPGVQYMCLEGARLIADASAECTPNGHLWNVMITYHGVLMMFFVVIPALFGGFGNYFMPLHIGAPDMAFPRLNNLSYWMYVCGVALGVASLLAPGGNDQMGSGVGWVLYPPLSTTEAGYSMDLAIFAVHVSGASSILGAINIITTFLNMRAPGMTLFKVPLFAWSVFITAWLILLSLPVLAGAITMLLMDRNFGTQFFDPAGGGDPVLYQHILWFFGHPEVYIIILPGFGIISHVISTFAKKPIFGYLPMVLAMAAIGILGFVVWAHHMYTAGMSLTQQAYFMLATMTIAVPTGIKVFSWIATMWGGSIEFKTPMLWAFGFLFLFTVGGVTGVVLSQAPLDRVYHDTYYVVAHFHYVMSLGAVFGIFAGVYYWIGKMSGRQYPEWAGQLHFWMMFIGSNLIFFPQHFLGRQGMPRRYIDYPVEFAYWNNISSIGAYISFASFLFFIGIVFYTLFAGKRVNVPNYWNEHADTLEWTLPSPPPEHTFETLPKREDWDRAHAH
Experimental: (§3) Cytochrome c oxidase was purified from rat liver mitochondria of female Wistar rats as described by Frei et al. (Frei, B., Winterhalter, K. H., and Richter, C. (1985) J. Biol. Chem. 260, 7394-7401). The homogenization medium contained 210 mM mannitol, 70 mM saccharose, 10 mM tris-HCl (pH 7.4), 0.1 mM EDTA, and 0.5 mg/mL BSA. The heart mitochondria were purified using a similar method, a polytron homogenizer being used. The cytochrome c oxidase was purified according to the method described by Adez and Cascarano (Adez, I. Z., and Cascarano, J. (1977) J. Bioenerg. Biomemb. 9, 237-253). Cytochrome c oxidase solubilized using Triton X-100 was reconstituted in variously composed phospholipid vesicles of differing dimensions, a modified cholate dialysis method being used. (Niggli, V., Siegel, E., and Carafoli, E. (1982) J. Biol. Chem. 257, 2350-2356). […]
(§4) The cytochrome c oxidase activity was determined by establishing the oxygen consumption. […] Reconstituted cytochrome c oxidase was measured with ascorbate/TPMD (10 mM/0.2 mM) in a medium containing 100 mM KCl, 0.01 M HEPES-KOH (pH 7.0) und 0.1 mM EDTA.
(§5) A protective effect by negatively charged phospholipids was also observed when increasing quantities of cardiolipin (see above, a negatively charged phospholipid) were added to vesicles containing PC/PE (see Table III). […]

Cyt.c = Cyt.c (Homo sapiens, UniProt P99999); test: Binding of [3H]-A2E to cytochrome c by co-precipitation; conditions: 20 min
Cyt.c, sequence (P99999 whole entry): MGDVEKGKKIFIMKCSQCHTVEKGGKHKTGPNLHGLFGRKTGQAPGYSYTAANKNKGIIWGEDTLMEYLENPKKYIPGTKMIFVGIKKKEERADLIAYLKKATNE
Experimental: as §1, §2

COX from rat hearts = target: T6, COX from rat hearts (Rattus norvegicus, UniProt P00406+P05503+P05505); test: Reconstituted COX from rat hearts, sensitivity to A2E; assay type: biochemical
T6 construct: The heart mitochondria were purified using a similar method, a polytron homogenizer being used; from tissue; host or cells: rat heart mitochondria
T6 sequence (P00406 whole entry, other chains not shown): as the sequence (P00406 whole entry, other chains not shown) above
T6 sequence (P05505 whole entry, other chains not shown): as the sequence (P05505 whole entry, other chains not shown) above
Experimental: as §3, §4, §5

c1ccc([P+](c2ccccc2)(c2ccccc2)c2ccccc2)cc1 [TPP^+, tetraphenyl phosphonium ion]
IC50 (μM) in relation to COX ([1]; solubilized COX 2 μg/mL): No inhibition

CCCCCCCCCCCCCCCCCCN [Stearylamine]
IC50 (μM) in relation to COX ([1]; solubilized COX 2 μg/mL): No inhibition

Cc1cc(N)c2ccccc2[n+]1CCCCCCCCCC[n+]1c(C)cc(N)c2ccccc21 [Dequalinium]
IC50 ([1]; solubilized COX 2 μg/mL): 40 µM

phosphatidylinositol [PI]
Protection of reconstituted COX from inhibition by A2E [2]: pronounced protective effect

CC1=C(/C=C/C(C)=C/C=C/C(C)=C/C=O)C(C)(C)CCC1 [Retinal]
IC50 ([1]; solubilized COX 2 μg/mL): 200 µM

CC1=C(/C=C/C(C)=C/C=C/C(C)=C/c2cc(/C=C/C=C(C)/C=C/C3=C(C)CCCC3(C)C)cc[n+]2CCO)C(C)(C)CCC1 [A2E, N-retinyl-N-retinylidene ethanolamine]
Molecules A2E/molecules protein (COX; COX + CL + Cyt.c, darkness): 0.7 +/− 0.9 (n = 3)
Molecules A2E/molecules protein (COX; COX + CL + Cyt.c, exposure to light): 3.8 +/− 2.3 (n = 4)
Molecules A2E/molecules protein (COX; COX + CL, exposure to light): 2.7 +/− 3.6 (n = 4)
Molecules A2E/molecules protein (BSA; darkness): 1.6 +/− 0.5 (n = 3)
Molecules A2E/molecules protein (BSA; exposure to light): 1.6 +/− 0.5 (n = 3)
Cells died off (MCF-7 cells; 60 μM A2E, 5 days): 99%
Induction of apoptosis (MCF-7 cells; A2E 10, 30, 60 μM, 3 and/or 5 days): led to the cells becoming apoptotic
IC50 ([3]; solubilized COX 1 μg/mL): 3 µM
IC50 ([3]; solubilized COX 4 μg/mL): 20 µM
% COX inhibition ([1]; solubilized COX 2 μg/mL, A2E always 20 μM, CL 200 μg/mL, RR 10 μM, La3+ 200 μM where added): 60%
IC50 ([1]; solubilized COX 2 μg/mL): 7 µM
Molecules A2E/molecules protein (Myoglobin; darkness): 0.0 (n = 2)
Molecules A2E/molecules protein (Myoglobin; exposure to light): 0.0 (n = 2)
Sensitivity of enzyme to A2E [4]: sensitive
Molecules A2E/molecules protein (Cyt.c; darkness): 0.0 (n = 3)
Molecules A2E/molecules protein (Cyt.c; exposure to light): 0.0 (n = 3)
Sensitivity of enzyme to A2E (COX from rat hearts): sensitive

C[n+]1ccc(-c2ccccc2)cc1 [MPP^+, methylphenyl pyridinium ion]
IC50 (μM) in relation to COX ([1]; solubilized COX 2 μg/mL): No inhibition

1,3 diphosphatidylglycerol [CL]
Prevention of A2E binding to COX (COX; co-precipitation): almost completely prevented
Cells survived (MCF-7 cells; 60 μM A2E + CL 500 μg/mL, 5 days): 95%
Protection from A2E-induced apoptosis (MCF-7 cells; CL 500 μg/mL): significant protective effect
Protective effect on COX against A2E after (pre)treatment with peroxynitrite ([1]; CL oxidised with peroxynitrite): loss of the protective properties
